Data: US20090062301A1, “PHARMACEUTICAL COMBINATION COMPOSITION COMPRISING AT LEAST ONE PKC INHIBITOR AND AT LEAST ONE JA K3 KINASE INHIBITOR FOR TREATING AUTOIMMUNE DISORDERS” (priority 2006, published 2009)

Test system: donor heart graft (rejection)
Assay: Rat heart transplantation (graft survival)
Format: in vivo, rat (Male Lewis and BN)
Source text: A. Rat Heart Transplantation
The strain combination used: Male Lewis (RT^1 haplotype) and BN (RT^1 haplotype). The animals are anaesthetised using inhalational isofluorane. […] The aorta is ligated and divided distal to the first branch and the brachiocephalic trunk is divided at the first bifurcation. The left pulmonary artery is ligated and divided and the right side divided but left open. All other vessels are dissected free, ligated and divided and the donor heart is removed into iced saline.
The recipient is prepared by dissection and cross-clamping of the infra-renal abdominal aorta and vena cava. The graft is implanted with end-to-side anastomoses, using 10/0 monofilament suture, between the donor brachiocephalic trunk and the recipient aorta and the donor right pulmonary artery to the recipient vena cava. The clamps are removed, the graft tethered retroabdominally, the abdominal contents washed with warm saline and the animal is closed and allowed to recover under a heating lamp. Graft survival is monitored by daily palpation of the beating donor heart through the abdominal wall. Rejection is considered to be complete when heart beat stops.

SMILES: C[C@@H]1CCN(C(=O)CC#N)C[C@@H]1N(C)c1ncnc2[nH]ccc12 [CP-690,550, 3-{(3R,4R)-4-methyl-3-[methyl-(7H-pyrrolo[2,3-d]pyrimidin-4-yl)-amino]-piperidin-1-yl}-3-oxo-propionitrile]
- EC50 (672 h, rat heart transplantation, CP-690,550 in mono-citrate salt form, concentration in blood, read-out: EC50 (drug concentration in blood at which 50% of the animals maintain their graft for >28 days)): 0.06 µg/mL
- graft survival (rat heart transplantation, Compound A in the acetate form at 1 to 30 mg/kg/day and CP-690,550 mono-citrate at an EC50 of 60 ng/ml): significantly increase the graft survival

SMILES: CN1CCN(c2nc(C3=C(c4c[nH]c5ccccc45)C(=O)NC3=O)c3ccccc3n2)CC1 [Compound A, 3-(1.H.-indol-3-yl)-4-[2-(4-methyl-piperazin-1-yl)-quinazolin-4-yl]-pyrrole-2,5-dione]
- graft survival (rat, in vivo): significantly increase the graft survival
